# Experimental data as given in patent US12031170B2, “System for improved production titers in fermentations” (DANMARKS TEKNISKE UNIVERSITET, priority 2015, dated 2024).
# Experiments:
# Type in all cases: cell-based
# [1] = system: E. coli control strain e3.18CON; assay: Toxicity of salicylic acid to non-addicted control strain, growth in microtiter plate; conditions: 2xYT, 5 mM salicylic acid, 37 deg. C.
# Method: Recombineering was performed as described in section 2.3 using well-described methods utilizing the pKD46 plasmid (Datsenko and Wanner, 2000). Instead of gene disruption, a specific set of knock-out DNA fragments was used to only replace the native essential folP-glmM operon promoter and folP RBS. This set of knockout DNA fragments contained a kanamycin resistance cassette and the pSAL promoter, as illustrated in the cartoon in FIG. 8, as well as a redundant nucleotide (“N”, wherein “N” is any of A, T , G or C) in the RBS for folP-glmM to generate a four-membered library of folP translational strengths. This library allows selection of a translational strength for folP that suits the transcriptional regulation by the biosensor. Finally, candidate recombineered cells were selected for by plating on LB agar plates supplemented with 5 mM salicylic acid and spectinomycin for maintenance of pBANspec; and kanamycin for selection of inserted knockout fragment. […]
# (§1) A selected addicted strain (e3.18#1) and the non-addicted control E. coli strain (e3.18CON) were then tested for salicylic acid dependent growth by cultivation in a microtiter plate reader in liquid 2xYT medium supplemented with spectinomycin and kanamycin and presence/absence of salicylic acid (0 or 5 mM). […]
# [2] = system: E. coli strain e3.18#1; assay: Salicylic acid-dependent growth of addicted strain; conditions: 5 mM salicylic acid
# Description: (§2) The native single genomic copy of the essential gene operon folP-glmM in the E. coli XL1 host strain was modified to allow its transcriptional control by the salicylic acid-responsive promoter pSAL [SEQ ID No:118]. First, a gene encoding a salicylic acid biosensor (Pseudomonas putida nahR_Asn169 (Cebolla et al., 1997)) was introduced into the XL1 host strain on the plasmid pBANspec (Table 10). Then, replacement of the native folP-glmM promoter by the pSAL promoter was engineered by means of lambda red-mediated recombineering.
# Recombineering was performed as described in section 2.3 using well-described methods utilizing the pKD46 plasmid (Datsenko and Wanner, 2000). Instead of gene disruption, a specific set of knock-out DNA fragments was used to only replace the native essential folP-glmM operon promoter and folP RBS. […]
# as §1
# [3] = system: E. coli control strain e3.22CON; assay: Toxicity of benzoic acid to non-addicted control strain, growth in microtiter plate; conditions: 2xYT, 5 mM benzoic acid, 37 deg. C.
# Method: A non-addicted control E. coli strain (e3.22CON), also equipped with spectinomycin and kanamycin resistance genes, but wild-type control of folP-glmM expression (Table 13), was constructed in order to test the toxicity of benzoic acid.
# A selected addicted strain (e3.22#4) and the non-addicted control E. coli strain (e3.18CON) were then tested for benzoic acid dependent growth by cultivation in a microtiter plate reader in liquid 2xYT medium supplemented with spectinomycin and kanamycin and w/wo salicylic acid (0 or 5 mM). […] In contrast to the control strain, the growth rate and final biomass yield of the addicted strain e3.18#1 was enhanced by supplementation with benzoic acid with a growth rate higher than otherwise expected for non-addicted strains (FIG. 16).
# [4] = system: E. coli strain e3.22#4; assay: Benzoic acid-dependent growth of addicted strain; conditions: 5 mM benzoic acid
# Description: as §2, with “benzoic” for “salicylic”, “nahR) (Table 12)” for “nahR_Asn169 (Cebolla et al., 1997))”, “pBABspec.” for “pBANspec (Table 10).”
# Recombineering was performed as described in section 2.3 using well-described methods utilizing the pKD46 plasmid (Datsenko and Wanner, 2000)). Instead of gene disruption, a specific set of knock-out DNA fragments was used to only replace the native essential folP-glmM operon promoter and folP RBS. This set of knockout DNA fragments contained a kanamycin resistance cassette and the pSAL promoter, as illustrated in the cartoon in FIG. 8, as well as a redundant nucleotide (“N”, wherein “N” is any of A, T , G or C) in the RBS for folP-glmM to generate a four-membered library of folP translational strengths. […]
# A selected addicted strain (e3.22#4) and the non-addicted control E. coli strain (e3.18CON) were then tested for benzoic acid dependent growth by cultivation in a microtiter plate reader in liquid 2xYT medium supplemented with spectinomycin and kanamycin and w/wo salicylic acid (0 or 5 mM). […]
# [5] = system: E. coli XL1 with folP/glmM driven by pBAD promoter; assay: L-arabinose-addiction regulated essential gene operon folP/glmM, cell growth (OD600); conditions: 37° C.
# [6] = system: E. coli XL-1 with pBAD-TA5; assay: L-arabinose-addiction yefM-yoeB TA system, cell growth (OD600)
# Method: The yefM-yoeB TA pair was cloned into a plasmid (pBAD-TA5: araC, pBAD-yefM, pLac-yoeB, ampR) (Table 1) employing standard PCR cloning protocols (known in the art) and the plasmid was transformed into the host stain E. coli XL-1 with the genotype: recA1endA1 gyrA96 thi-1 hsdR17 supE44 relA1 lac[F′proAB lacIqZM15 Tn10 (TetR)]. Electroporation recovery of transformed cells was carried out in SOC medium (2% tryptone, 0.5% yeast extract, 10 mM NaCl, 2.5 mM KCl, 10 mM MgCl2, 10 mM MgSO4, and 20 mM glucose).
# Transformed E. coli cultures were grown in 2xYT medium (10 g/L yeast extract, 16 g/L tryptone, 5 g/L NaCl). Antibiotics were added to select for maintenance of plasmids in strains transformed with these, according to their respective antibiotic resistance gene. Antibiotic concentrations when added were as follows: ampicillin 100 μg/mL, chloramphenicol 30 μg/mL, spectinomycin 50 μg/mL, kanamycin 50 μg/mL.
# The expression of the yoeB gene in the yefM-yoeB TA pair construct (FIG. 2) was placed under the control of the Lac promoter, which is inducible by isopropyl β-D-1-thiogalactopyranoside (IPTG). Exposure of the cells to increasing concentrations of IPTG induced sufficient expression of the YoeB toxin to prevent growth, when the cells were grown in the absence of any source of L-arabinose (FIG. 3A). […]
# [7] = system: E. coli control strain e3.16CON; assay: Toxicity of triacetic acid lactone to non-addicted control strain, growth in microtiter plate
# Method: A non-addicted control E. coli strain (e3.16CON), also equipped with spectinomycin and kanamycin resistance genes, but with wildtype control of folP-glmM expression (Table 9), was constructed in order to test the toxicity of triacetic acid lactone.
# The non-addicted control E. coli strain (e3.16CON), and a selected addicted strain (e3.16#5) were then tested and compared for triacetic acid lactone-dependent growth by cultivation in a microtiter plate reader in liquid 2xYT medium supplemented with spectinomycin and kanamycin and a three-step gradient of triacetic acid lactone (0, 2 and 20 mM). […] The observed growth depression was greatest at a concentration of 20 mM triacetic acid lactone.
# [8] = system: E. coli strain e3.16#5; assay: Triacetic acid lactone-dependent growth of addicted strain
# Description: The native single genomic copy of the essential gene operon folP-glmM in the E. coli XL1 host strain was modified to allow its transcriptional control by the triacetic acid lactone-responsive promoter pBAD. First, a gene encoding a triacetic acid lactone biosensor (AraCtal (Tang et al., 2013)) was introduced into the XL1 host strain on the plasmid pBALspec (Table 8). Then, replacement of the native folP-glmM promoter in this host strain by the pBAD promoter was engineered by means of lambda red-mediated recombineering. Recombineering was performed using well-described methods utilizing the pKD46 plasmid (Datsenko and Wanner, 2000), but instead of gene disruption, a specific set of knock-out DNA fragments (produced by PCR) was used to only replace the native essential folP-glmM operon promoter and folP ribosomal binding site (RBS). This set of knockout DNA fragments each contained a kanamycin resistance cassette and the pBAD promoter, as illustrated in the cartoon in FIG. 8. The nucleotide sequence of the set of gene knockout DNA fragments differed only with respect to the redundant nucleotide (“N”, wherein “N” is any of A, T, G or C) in the RBS sequence (ACTTGC) for folP-glmM, which generated a four-membered library of folP translational strengths.
# For recombineering, as performed in standard pKD46 protocols, the target strain was first transformed with pKD46, and a single colony of this strain was then cultured in a 25 mL 2xYT culture at 30 degrees C. and 250 rpm horizontal shaking. When the culture reached OD600=0.1, the lambda Red system of pKD46 was induced by addition of 0.2 vol % L-arabinose, and then further cultured to grow to OD600=0.4. […]
# The non-addicted control E. coli strain (e3.16CON), and a selected addicted strain (e3.16#5) were then tested and compared for triacetic acid lactone-dependent growth by cultivation in a microtiter plate reader in liquid 2xYT medium supplemented with spectinomycin and kanamycin and a three-step gradient of triacetic acid lactone (0, 2 and 20 mM). […]
# [9] = system: E. coli with mevalonate biosensor TA plasmid (pBAM-TA5); conditions: 37 mM mevalonate added; no IPTG
# [10] = system: E. coli XL1 with pBAT-TA5; assay: TPP-responsive riboswitch-regulated TA system, cell growth (OD600); conditions: presence of inducer TPP (500 μM added to the growth medium)
# Description: A TPP-responsive riboswitch (ThiMN15 #19) was engineered into the previously constructed L-arabinose-responsive TA-based correction system (pBAD-TA5 to yield pBAT-TA5). This TPP riboswitch functions as an “ON-type” when in the presence of its ligand TPP, and it is functional at the level of translation. The riboswitch was inserted into the DNA region of the pBAD-TA5 gene construct that encodes the 5′ untranslated region (UTR) of the antitoxin mRNA sequence (FIG. 17). For optimal functionality of the riboswitch, a protein-encoding sequence tet was also added as N-terminal fusion to YefM as it originated from the screen where ThiMN15#19 had been identified. An alternative TPP-responsive riboswitch was constructed, where an “OFF-type” riboswitch was inserted into the DNA region of the pBAD-TA5 gene construct that encodes the 5′-UTR of the toxin-encoding sequence to yield the same ligand-responsive growth.
# An alternative TPP responsive-riboswitch-regulated TA correction system was engineered with a constitutive promoter driving expression of the riboswitch-yefM mRNA. From a selection of constitutive promoters (SEQ ID Nos.: 47-65, 89) of different strengths, the pBAD promoter of pBAT-TA5 was replaced and the resulting plasmids transformed into E. coli XL1. […]
smiles,measurement,setting,value
O=C(O)c1ccccc1O [salicylic acid],effect on growth of control strain,[1],relative reduction in growth rate and final biomass yield
same,growth rate of addicted strain,[2],not reduced
O=C(O)c1ccccc1 [benzoic acid],effect on growth of control strain,[3],relative reduction in growth rate and final biomass yield
same,growth rate and final biomass yield of addicted strain,[4],enhanced
O=C[C@H](O)[C@@H](O)[C@@H](O)CO [L-arabinose],cell growth,"[5]; 2xYT supplemented with 0.0025% L-arabinose, 12-hour time course",completely failed to grow
same,cell growth,[5]; 2xYT supplemented with 0.25% L-arabinose,exponential
same,L-arabinose concentration sufficient to restore wild-type growth,[6]; co-addition with IPTG at concentrations up to 0.5 mM,0.1%
Cc1cc(O)cc(=O)o1 [triacetic acid lactone],effect on growth of control strain,"[7]; 2xYT, 0, 2 and 20 mM triacetic acid lactone, 37 deg. C.",relative reduction in growth rate
same,concentration at which observed growth depression was greatest,"[7]; gradient 0, 2 and 20 mM",20000 µM
same,final cell yield of addicted strain,[8]; 2 mM triacetic acid lactone,increased
same,growth rate of addicted strain,[8]; 2 mM triacetic acid lactone,enhanced
same,final cell yield of addicted strain,[8]; 20 mM triacetic acid lactone,increased
"CC(C)S[C@@H]1O[C@H](CO)[C@H](O)[C@H](O)[C@H]1O [IPTG, isopropyl β-D-1-thiogalactopyranoside]",IPTG (toxin inducer) concentration at which cell growth was strongly inhibited,"[6]; no L-arabinose, yoeB toxin under pLac",≥ 0.1 mM
CC(O)(CCO)CC(=O)O (stereo not drawn) [mevalonate],effect on cell growth compared to cultures devoid of mevalonate,[9],increase in cell growth
"Cc1ncc(C[n+]2csc(CCO[P@](=O)(O)OP(=O)(O)O)c2C)c(N)n1 [TPP, thiamine pyrophosphate]",effect on growth,[10],enhanced growth
